Reference: PubChem BioAssay (NCI)
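Protocol summary: plate cells (96-well), add compound at 5 concentrations, incubate 48 h, interpolate endpoints linearly. TGI is the concentration that stops growth completely.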

What was measured:
Test in all cases: inhibition of tumour cell growth, NCI panel, 48 h
SNB-19 CNS = test system: SNB-19 CNS
SK-OV-3 ovarian = test system: SK-OV-3 ovarian
HOP-62 NSCLC = test system: HOP-62 NSCLC
MDA-N = test system: MDA-N
COLO 205 colon = test system: COLO 205 colon
OVCAR-4 ovarian = test system: OVCAR-4 ovarian
DU-145 prostate = test system: DU-145 prostate
KM12 colon = test system: KM12 colon
SF-539 CNS = test system: SF-539 CNS
UACC-257 melanoma = test system: UACC-257 melanoma
HCT-15 colon = test system: HCT-15 colon
SK-MEL-28 melanoma = test system: SK-MEL-28 melanoma
IGROV1 ovarian = test system: IGROV1 ovarian
SF-295 CNS = test system: SF-295 CNS
MALME-3M melanoma = test system: MALME-3M melanoma
NCI-H23 lung = test system: NCI-H23 lung

Compound	TGI (SNB-19 CNS) [µM]	TGI (SK-OV-3 ovarian) [µM]	TGI (HOP-62 NSCLC) [µM]	TGI (MDA-N) [µM]	TGI (COLO 205 colon) [µM]	TGI (OVCAR-4 ovarian) [µM]	TGI (DU-145 prostate) [µM]	TGI (KM12 colon) [µM]	TGI (SF-539 CNS) [µM]	TGI (UACC-257 melanoma) [µM]	TGI (HCT-15 colon) [µM]	TGI (SK-MEL-28 melanoma) [µM]	TGI (IGROV1 ovarian) [µM]	TGI (SF-295 CNS) [µM]	TGI (MALME-3M melanoma) [µM]	TGI (NCI-H23 lung) [µM]
Cc1cc2nc(N3C(=O)/C(=C/c4ccccc4S)N=C3c3ccccc3)sc2cc1C	> 100	> 100	> 100	39.1	98.5	> 100	> 100	> 100	> 100	> 100	> 100	> 100	> 100	> 100		
COc1cccc(-c2nc3ccccc3c(=O)[nH]2)c1OC	> 100	> 100	> 100	> 100	> 100	> 100	> 100	> 100		> 100	> 100		> 100	> 100	> 100	> 100
CC1OC(OC2C(OC(=O)[C@@H]3CC(C)(C)C[C@@H]4C5=CC[C@@H]6[C@@]7(C)C[C@H](O)[C@H](OC8OC(CO)C(O)C(O)C8O)[C@@](C)(CO)C7[C@H](O)C[C@@]6(C)[C@]5(C)C[C@@H](O)[C@H]43)OCC(O)C2O)C(O)C(O)C1O (some centres undefined)	> 15	> 15	> 15		> 15	> 15	> 15	> 15	> 15	> 15	> 15		> 15	> 15		> 15
C=CCc1ccccc1CC1(OCC)OC(=O)c2ccccc21 (centres undefined)	> 100	> 100	> 100	71.8	> 100	> 100	> 100		> 100	> 100	> 100	> 100	> 100	> 100		> 100
Cc1ccc(/C=C2\CN(C)CC3C2=NN(c2ccccc2)C3c2ccc(C)cc2)cc1 (centres undefined)	> 100	> 100	> 100	> 100	> 100	> 100	> 100	> 100		> 100	> 100	> 100	> 100	> 100	> 100	> 100
CN(C(=O)C1CCCCCC1=O)c1ccccc1Cl (centres undefined)	> 100	> 100	> 100		> 100	> 100	> 100	> 100	> 100	> 100	> 100	> 100	> 100	> 100	> 100	> 100
CC(=O)C(CN(Cc1ccccc1)Cc1ccccc1)C(c1ccccc1)c1c(O)c2ccccc2oc1=O (centres undefined)	> 100	> 100	> 100			> 100		> 100	> 100	> 100	> 100		> 100	> 100	> 100	> 100
Cc1c(Cl)c(S(N)(=O)=O)cc2c1NC=NS2(=O)=O	> 100	> 100	> 100	> 100	> 100	> 100	> 100	> 100		> 100	> 100	> 100	> 100	> 100	> 100	> 100
O=C(O)CCc1cccc2c1oc1c(CCC(=O)O)cccc12	> 100	> 100			> 100	> 100		> 100	> 100	> 100	> 100	> 100	> 100	> 100	> 100	> 100
CC1=C(C(=O)N(C(C)C)C(C)C)CC(C(=O)N(C(C)C)C(C)C)=C(C)N1	> 100	> 100	> 100	> 100	> 100	> 100	> 100	> 100	> 100	> 100	> 100		> 100	> 100		> 100
N#CCCN(c1ccc(C=Nc2ccccc2Cl)cc1)S(=O)(=O)c1ccccc1	> 100	> 100	> 100		> 100	> 100		> 100	> 100	> 100	> 100	> 100	> 100	> 100	> 100	> 100
CC1(C)C/C(=N/O)c2c(nc3ccc4ccccc4c3c2-c2ccc(Cl)cc2)C1	> 100	34.7	92.2	> 100	72.8	30.4	40.9	> 100	36.4	91.2	41.6	> 100	31.6	22.8		46.7
COc1cc([C@H]2CC(=O)C[C@H](c3cc(OC)c(OC)c(OC)c3)C23C(=O)c2ccccc2C3=O)cc(OC)c1OC	> 100	> 100	> 100		> 100		> 100	> 100	> 100	> 100	> 100	> 100	> 100	> 100	> 100	> 100
S=C1CSc2c(ccc3ccccc23)N1	> 100	> 100	> 100	> 100	> 100	> 100	> 100	> 100		> 100	> 100	> 100	> 100	> 100	> 100	> 100
COc1ccc(N2C(=O)C3c4[nH]c5ccccc5c4C4CC(C)CC(C)C4C3C2=O)cc1 (centres undefined)	> 100	> 100	> 100		> 100	> 100			> 100	> 100	> 100	> 100	> 100	> 100	> 100	> 100
O=c1n(-c2ccccc2)c(=O)n2n1C1Cc3ccccc3C12 (centres undefined)	> 100	> 100	> 100	> 100	> 100		> 100	> 100	> 100	> 100	> 100	> 100	> 100	> 100		> 100
